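1) Cells in 96-well plates. 2) Compound, 48 h, 5 concentrations. 3) Linear interpolation between surrounding doses. 4) Unreached endpoint = highest concentration. TGI is the concentration that stops growth completely.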
How the values were obtained:
Test in all cases: NCI tumour cell line growth inhibition, 48 h
BT-549 breast = system: BT-549 breast
SK-MEL-28 melanoma = system: SK-MEL-28 melanoma
MDA-N = system: MDA-N
OVCAR-5 ovarian = system: OVCAR-5 ovarian
HOP-92 NSCLC = system: HOP-92 NSCLC
SN12C renal = system: SN12C renal
ACHN renal = system: ACHN renal
SF-295 CNS = system: SF-295 CNS
HCC-2998 colon = system: HCC-2998 colon
PC-3 prostate = system: PC-3 prostate
NCI/ADR-RES ovarian = system: NCI/ADR-RES ovarian
RXF 393 renal = system: RXF 393 renal
UO-31 renal = system: UO-31 renal
UACC-257 melanoma = system: UACC-257 melanoma
HS 578T breast = system: HS 578T breast
MDA-MB-231 breast = system: MDA-MB-231 breast
HL-60(TB) leukemia = system: HL-60(TB) leukemia
SR leukemia = system: SR leukemia
MOLT-4 leukemia = system: MOLT-4 leukemia
T-47D breast = system: T-47D breast

CCOC(=O)C(NC(C)=O)(Nc1ccc(F)cc1)C(F)(F)F (stereo not given) was tested, and the TGI (BT-549 breast) was greater than 100 µM, the TGI (SK-MEL-28 melanoma) was greater than 100 µM and the TGI (MDA-N) was greater than 100 µM. For the same molecule, the TGI (OVCAR-5 ovarian) was greater than 100 µM, the TGI (HOP-92 NSCLC) was greater than 100 µM and the TGI (SN12C renal) was greater than 100 µM. The TGI (ACHN renal) was greater than 100 µM, the TGI (SF-295 CNS) was greater than 100 µM and the TGI (HCC-2998 colon) was greater than 100 µM. It also gave a TGI (PC-3 prostate) greater than 100 µM, a TGI (NCI/ADR-RES ovarian) greater than 100 µM and a TGI (RXF 393 renal) greater than 100 µM. For the same molecule, the TGI (UO-31 renal) was greater than 100 µM, the TGI (UACC-257 melanoma) was greater than 100 µM and the TGI (HS 578T breast) was greater than 100 µM. The TGI (MDA-MB-231 breast) was greater than 100 µM, the TGI (HL-60(TB) leukemia) was greater than 100 µM and the TGI (SR leukemia) was greater than 100 µM. The TGI (MOLT-4 leukemia) was greater than 100 µM and the TGI (T-47D breast) was 81.5 µM.
